According to PubChem BioAssay (NCI):
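The concentration for 50% growth inhibition is given as GI50. TGI: concentration producing complete growth inhibition.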

Tests used:
Assay in all cases: growth of human tumour cells (NCI), 384-well format
786-0 renal = system: 786-0 renal
A498 renal = system: A498 renal
A549 NSCLC = system: A549 NSCLC
ACHN renal = system: ACHN renal
BT-549 breast = system: BT-549 breast
CAKI-1 renal = system: CAKI-1 renal
CCRF-CEM leukemia = system: CCRF-CEM leukemia
COLO 205 colon = system: COLO 205 colon
DU-145 prostate = system: DU-145 prostate
EKVX NSCLC = system: EKVX NSCLC
HCC-2998 colon = system: HCC-2998 colon
HCT-116 colon = system: HCT-116 colon
HCT-15 colon = system: HCT-15 colon
HL-60(TB) leukemia = system: HL-60(TB) leukemia
HOP-62 NSCLC = system: HOP-62 NSCLC
HOP-92 NSCLC = system: HOP-92 NSCLC
HS 578T breast = system: HS 578T breast
HT29 colon = system: HT29 colon
IGROV1 ovarian = system: IGROV1 ovarian
K-562 leukemia = system: K-562 leukemia
KM12 colon = system: KM12 colon
LOX IMVI melanoma = system: LOX IMVI melanoma
M14 melanoma = system: M14 melanoma
MALME-3M melanoma = system: MALME-3M melanoma
MCF7 breast = system: MCF7 breast
MDA-MB-231 breast = system: MDA-MB-231 breast
MDA-MB-435 melanoma = system: MDA-MB-435 melanoma
MDA-MB-468 breast = system: MDA-MB-468 breast
MOLT-4 leukemia = system: MOLT-4 leukemia
NCI-H226 lung = system: NCI-H226 lung
NCI-H23 lung = system: NCI-H23 lung
NCI-H322M lung = system: NCI-H322M lung
NCI-H460 NSCLC = system: NCI-H460 NSCLC
NCI-H522 lung = system: NCI-H522 lung
NCI/ADR-RES ovarian = system: NCI/ADR-RES ovarian
OVCAR-3 ovarian = system: OVCAR-3 ovarian
OVCAR-4 ovarian = system: OVCAR-4 ovarian
OVCAR-8 ovarian = system: OVCAR-8 ovarian
PC-3 prostate = system: PC-3 prostate
RPMI-8226 leukemia = system: RPMI-8226 leukemia
RXF 393 renal = system: RXF 393 renal
SF-268 CNS = system: SF-268 CNS
SF-295 CNS = system: SF-295 CNS
SF-539 CNS = system: SF-539 CNS
SK-MEL-28 melanoma = system: SK-MEL-28 melanoma
SK-MEL-5 melanoma = system: SK-MEL-5 melanoma
SK-OV-3 ovarian = system: SK-OV-3 ovarian
SN12C renal = system: SN12C renal
SNB-19 CNS = system: SNB-19 CNS
SNB-75 CNS = system: SNB-75 CNS
SW-620 colon = system: SW-620 colon
T-47D breast = system: T-47D breast
TK-10 renal = system: TK-10 renal
U251 glioblastoma = system: U251 glioblastoma
UACC-257 melanoma = system: UACC-257 melanoma
UACC-62 melanoma = system: UACC-62 melanoma
UO-31 renal = system: UO-31 renal

Question: Which results are given for `Cn1ncc(C#N)c1-c1ccc2c(c1)CN([C@H](CN)Cc1cccc(F)c1)C2=O`?
Answer: GI50 ([…]-0 renal): 0.324 µM; TGI (786-0 renal): 21.2 µM; GI50 (A498 renal): 0.269 µM; TGI (A498 renal): 16.7 µM; GI50 (A549 NSCLC): 12.2 µM; TGI (A549 NSCLC): 75.1 µM; GI50 (ACHN renal): 17.3 µM; TGI (ACHN renal): 93.9 µM; GI50 (BT-549 breast): 0.943 µM; TGI (BT-549 breast): 17.9 µM; GI50 (CAKI-1 renal): 5.91 µM; TGI (CAKI-1 renal): 40.8 µM; GI50 (CCRF-CEM leukemia): 0.675 µM; TGI (CCRF-CEM leukemia): 14.6 µM; GI50 (COLO 205 colon): 4.91 µM; TGI (COLO 205 colon): 25.4 µM; GI50 (DU-145 prostate): 16.5 µM; TGI (DU-145 prostate): 44.9 µM; GI50 (EKVX NSCLC): 11.1 µM; TGI (EKVX NSCLC): 40.3 µM; GI50 (HCC-2998 colon): 11 µM; TGI (HCC-2998 colon): 47.2 µM; GI50 (HCT-116 colon): 10.8 µM; TGI (HCT-116 colon): 23.2 µM; GI50 (HCT-15 colon): 16.3 µM; TGI (HCT-15 colon): > 100 µM; GI50 (HL-60(TB) leukemia): 15.9 µM; TGI (HL-60(TB) leukemia): 29.5 µM; GI50 (HOP-62 NSCLC): 23 µM; TGI (HOP-62 NSCLC): 71.1 µM; GI50 (HOP-92 NSCLC): 6.45 µM; TGI (HOP-92 NSCLC): 31.4 µM; GI50 (HS 578T breast): 1.57 µM; TGI (HS 578T breast): 19.8 µM; GI50 (HT29 colon): 4.87 µM; TGI (HT29 colon): 94.5 µM; GI50 (IGROV1 ovarian): 0.0552 µM; TGI (IGROV1 ovarian): 10.4 µM; GI50 (K-562 leukemia): 15.3 µM; TGI (K-562 leukemia): 43.7 µM; GI50 (KM12 colon): 0.841 µM; TGI (KM12 colon): 20.4 µM; GI50 (LOX IMVI melanoma): 27.6 µM; TGI (LOX IMVI melanoma): > 100 µM; GI50 (M14 melanoma): 11.2 µM; TGI (M14 melanoma): 26.8 µM; GI50 (MALME-3M melanoma): 1.76 µM; TGI (MALME-3M melanoma): 14.8 µM; GI50 (MCF7 breast): 0.498 µM; TGI (MCF7 breast): 16.3 µM; GI50 (MDA-MB-231 breast): 21.8 µM; TGI (MDA-MB-231 breast): 74.7 µM; GI50 (MDA-MB-435 melanoma): 15.8 µM; TGI (MDA-MB-435 melanoma): 43.3 µM; GI50 (MDA-MB-468 breast): 0.0967 µM; TGI (MDA-MB-468 breast): 3.28 µM; GI50 (MOLT-4 leukemia): 0.129 µM; TGI (MOLT-4 leukemia): 2.38 µM; GI50 (NCI-H226 lung): 14.4 µM; TGI (NCI-H226 lung): 39.1 µM; GI50 (NCI-H23 lung): 14.6 µM; TGI (NCI-H23 lung): 34.8 µM; GI50 (NCI-H322M lung): 16.9 µM; TGI (NCI-H322M lung): 70.2 µM; GI50 (NCI-H460 NSCLC): 0.582 µM; TGI (NCI-H460 NSCLC): 33.3 µM; GI50 (NCI-H522 lung): 13.3 µM; TGI (NCI-H522 lung): 27 µM; GI50 (NCI/ADR-RES ovarian): > 100 µM; TGI (NCI/ADR-RES ovarian): > 100 µM; GI50 (OVCAR-3 ovarian): 11.8 µM; TGI (OVCAR-3 ovarian): 32.4 µM; GI50 (OVCAR-4 ovarian): 35.7 µM; TGI (OVCAR-4 ovarian): > 100 µM; GI50 (OVCAR-8 ovarian): 24.3 µM; TGI (OVCAR-8 ovarian): > 100 µM; GI50 (PC-3 prostate): 0.436 µM; TGI (PC-3 prostate): 16.7 µM; GI50 (RPMI-8226 leukemia): 12.9 µM; TGI (RPMI-8226 leukemia): 26.1 µM; GI50 (RXF 393 renal): 0.433 µM; TGI (RXF 393 renal): 11.9 µM; GI50 (SF-268 CNS): 19.2 µM; TGI (SF-268 CNS): 58.5 µM; GI50 (SF-295 CNS): 0.668 µM; TGI (SF-295 CNS): 16.5 µM; GI50 (SF-539 CNS): 0.394 µM; TGI (SF-539 CNS): 33.4 µM; GI50 (SK-MEL-28 melanoma): 3.34 µM; TGI (SK-MEL-28 melanoma): 33.4 µM; GI50 (SK-MEL-5 melanoma): 6.5 µM; TGI (SK-MEL-5 melanoma): 20 µM; GI50 (SK-OV-3 ovarian): 0.534 µM; TGI (SK-OV-3 ovarian): 23.2 µM; GI50 (SN12C renal): 17.6 µM; TGI (SN12C renal): 65.9 µM; GI50 (SNB-19 CNS): 13.7 µM; TGI (SNB-19 CNS): 67.3 µM; GI50 (SNB-75 CNS): 0.299 µM; TGI (SNB-75 CNS): 14 µM; GI50 (SW-620 colon): 27.5 µM; TGI (SW-620 colon): 82 µM; GI50 (T-47D breast): 0.0502 µM; TGI (T-47D breast): 19.5 µM; GI50 (TK-10 renal): 10.1 µM; TGI (TK-10 renal): 42.8 µM; GI50 (U251 glioblastoma): 11.1 µM; TGI (U251 glioblastoma): 68.7 µM; GI50 (UACC-257 melanoma): 12.5 µM; TGI (UACC-257 melanoma): 31.1 µM; GI50 (UACC-62 melanoma): 4.27 µM; TGI (UACC-62 melanoma): 19.8 µM; GI50 (UO-31 renal): 13.4 µM; TGI (UO-31 renal): 46.7 µM
